According to publication PMC8288134, “Synthesis, potential antitumor activity, cell cycle analysis, and multitarget mechanisms of novel hydrazones incorporating a 4-methylsulfonylbenzene scaffold: a molecular docking study” (Journal of Enzyme Inhibition and Medicinal Chemistry, 2021):
Like-named read-outs stand apart in the source and are kept apart here.

Assays:
[1] = system: ovarian cancer tumour cell lines; conditions: cited from earlier work; for GI50: read-out: GI50 (subpanel average), reference drugs, ref https://dtp.cancer.gov/dtpstandard/dwindex/index.jsp; for CC50: read-out: LC50 (subpanel average), reference drugs, ref https://dtp.cancer.gov/dtpstandard/dwindex/index.jsp; for TGI (subpanel average): reference drugs, ref https://dtp.cancer.gov/dtpstandard/dwindex/index.jsp
HT29 [2] = system: HT29; design: method as in https://dtp.cancer.gov/dtpstandard/dwindex/index.jsp; conditions: reference drugs, ref https://dtp.cancer.gov/dtpstandard/dwindex/index.jsp; cited from earlier work
NCI-H23 = system: NCI-H23; design: method as in https://dtp.cancer.gov/dtpstandard/dwindex/index.jsp; conditions: reference drugs, ref https://dtp.cancer.gov/dtpstandard/dwindex/index.jsp; cited from earlier work
SW-620 = system: SW-620; design: method as in https://dtp.cancer.gov/dtpstandard/dwindex/index.jsp; conditions: reference drugs, ref https://dtp.cancer.gov/dtpstandard/dwindex/index.jsp; cited from earlier work
SK-OV-3 = system: SK-OV-3; design: method as in https://dtp.cancer.gov/dtpstandard/dwindex/index.jsp; conditions: reference drugs, ref https://dtp.cancer.gov/dtpstandard/dwindex/index.jsp; cited from earlier work
OVCAR-4 = system: OVCAR-4; design: method as in https://dtp.cancer.gov/dtpstandard/dwindex/index.jsp; conditions: reference drugs, ref https://dtp.cancer.gov/dtpstandard/dwindex/index.jsp; cited from earlier work
PRMI-8226 = system: PRMI-8226; design: method as in https://dtp.cancer.gov/dtpstandard/dwindex/index.jsp; conditions: reference drugs, ref https://dtp.cancer.gov/dtpstandard/dwindex/index.jsp; cited from earlier work
EKVX = system: EKVX; design: method as in https://dtp.cancer.gov/dtpstandard/dwindex/index.jsp; conditions: reference drugs, ref https://dtp.cancer.gov/dtpstandard/dwindex/index.jsp; cited from earlier work
NCI-H322M = system: NCI-H322M; design: method as in https://dtp.cancer.gov/dtpstandard/dwindex/index.jsp; conditions: reference drugs, ref https://dtp.cancer.gov/dtpstandard/dwindex/index.jsp; cited from earlier work
[3] = system: NSC lung cancer tumour cell lines; conditions: cited from earlier work; for GI50: read-out: GI50 (subpanel average), reference drugs, ref https://dtp.cancer.gov/dtpstandard/dwindex/index.jsp; for CC50: read-out: LC50 (subpanel average), reference drugs, ref https://dtp.cancer.gov/dtpstandard/dwindex/index.jsp; for TGI (subpanel average): reference drugs, ref https://dtp.cancer.gov/dtpstandard/dwindex/index.jsp
HCT-15 [4] = system: HCT-15; design: method as in https://dtp.cancer.gov/dtpstandard/dwindex/index.jsp; conditions: reference drugs, ref https://dtp.cancer.gov/dtpstandard/dwindex/index.jsp; cited from earlier work
SK-MEL-2 [5] = system: SK-MEL-2; design: method as in https://dtp.cancer.gov/dtpstandard/dwindex/index.jsp; conditions: reference drugs, ref https://dtp.cancer.gov/dtpstandard/dwindex/index.jsp; cited from earlier work
HCC-2998 = system: HCC-2998; design: method as in https://dtp.cancer.gov/dtpstandard/dwindex/index.jsp; conditions: reference drugs, ref https://dtp.cancer.gov/dtpstandard/dwindex/index.jsp; cited from earlier work
UO-31 = system: UO-31; design: method as in https://dtp.cancer.gov/dtpstandard/dwindex/index.jsp; conditions: reference drugs, ref https://dtp.cancer.gov/dtpstandard/dwindex/index.jsp; cited from earlier work
COLO 205 = test: NCI antitumor screen (SRB); assay type: cell-based; conditions: Homo sapiens
UACC-257 = test: NCI antitumor screen (SRB); assay type: cell-based, human
MDA-MB-468 = test: NCI antitumor screen (SRB); assay type: cell-based; conditions: Homo sapiens
SNB-19 = test: NCI antitumor screen (SRB); assay type: cell-based; conditions: Homo sapiens
SN12C = test: NCI antitumor screen (SRB); assay type: cell-based; conditions: Homo sapiens
SK-MEL-2 [6] = test: NCI antitumor screen (SRB); assay type: cell-based; conditions: Homo sapiens, SK-MEL-2
M14 = test: NCI antitumor screen (SRB); assay type: cell-based; conditions: Homo sapiens
MDA-MB-231/ATCC = test: NCI antitumor screen (SRB); assay type: cell-based; conditions: Homo sapiens
HCT-15 [7] = test: NCI antitumor screen (SRB); assay type: cell-based; conditions: Homo sapiens
EGFR = EGFR (Homo sapiens, UniProt P00533); test: biochemical; conditions: read-out: IC50 EGFR Inhibition
Chain of EGFR (P00533 25-1210): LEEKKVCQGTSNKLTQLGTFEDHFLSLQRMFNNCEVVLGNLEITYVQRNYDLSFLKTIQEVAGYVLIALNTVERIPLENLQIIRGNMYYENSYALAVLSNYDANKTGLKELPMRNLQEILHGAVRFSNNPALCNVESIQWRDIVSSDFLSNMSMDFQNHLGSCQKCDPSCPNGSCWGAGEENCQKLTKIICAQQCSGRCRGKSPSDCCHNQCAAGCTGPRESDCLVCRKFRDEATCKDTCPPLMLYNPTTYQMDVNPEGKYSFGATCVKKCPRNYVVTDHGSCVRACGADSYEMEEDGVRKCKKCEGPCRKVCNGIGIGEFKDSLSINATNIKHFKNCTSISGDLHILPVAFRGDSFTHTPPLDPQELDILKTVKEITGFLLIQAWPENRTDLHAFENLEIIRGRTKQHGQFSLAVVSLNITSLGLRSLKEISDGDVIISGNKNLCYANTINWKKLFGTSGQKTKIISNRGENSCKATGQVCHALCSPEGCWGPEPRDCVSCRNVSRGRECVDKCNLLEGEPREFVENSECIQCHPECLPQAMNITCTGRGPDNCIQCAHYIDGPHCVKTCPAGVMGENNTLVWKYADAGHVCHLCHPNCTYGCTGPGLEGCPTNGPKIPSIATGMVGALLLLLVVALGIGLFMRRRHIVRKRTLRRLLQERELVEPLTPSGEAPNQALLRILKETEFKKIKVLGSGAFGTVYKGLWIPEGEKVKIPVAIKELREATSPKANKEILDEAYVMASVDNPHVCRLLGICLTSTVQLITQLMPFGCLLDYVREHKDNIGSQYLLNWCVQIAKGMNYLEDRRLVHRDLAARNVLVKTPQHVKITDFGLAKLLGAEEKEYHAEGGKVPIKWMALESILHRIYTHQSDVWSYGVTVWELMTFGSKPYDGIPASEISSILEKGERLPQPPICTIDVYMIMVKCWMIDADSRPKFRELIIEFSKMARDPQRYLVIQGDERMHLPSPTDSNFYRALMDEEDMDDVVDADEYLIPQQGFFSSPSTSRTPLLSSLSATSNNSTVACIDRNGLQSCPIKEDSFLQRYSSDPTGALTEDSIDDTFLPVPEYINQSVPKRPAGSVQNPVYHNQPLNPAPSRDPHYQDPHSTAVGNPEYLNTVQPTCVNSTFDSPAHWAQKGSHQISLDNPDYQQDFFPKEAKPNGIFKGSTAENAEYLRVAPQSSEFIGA
Excerpt: (§1) In vitro luminescent EGFR tyrosine kinase assay using Kinase-Glo® MAX as a detection reagent, and In vitro HER2 tyrosine kinase assay using DP‐Glo™ reagent that measures ADP formed from a kinase reaction, this luminescent signal positively correlates with ADP amount and kinase activity. […]
(§2) 2.1.5. EGFR and Her2 assays
(§3) In vitro luminescent EGFR tyrosine kinase assay, using Kinase-Glo® MAX as a detection reagent, and In vitro HER2 tyrosine kinase assay, using DP‐Glo™ reagent that measures the adenosine diphosphate (ADP) formed from a kinase reaction, were performed; this luminescent signal positively correlates with ADP amount and kinase activity. In 17 μl of distilled water, 6 μl of Kinase assay buffer and 1 μl ATP and 1 μl PTK substrate were mixed (master mixture). In every well, mix 20 μl of the master mixture and 5 μl of Inhibitor solution (Test Inhibitor) for positive control, and use 5 μl of the same solution without inhibitor (Inhibitor buffer) as the blank solution; add 20 μl of diluted EGFR or Her2 enzyme and incubate at 30°C for 40 min. Add 50 μl of Kinase-Glo Max reagent to each well, cover the plate with aluminum foil and incubate the plate at room temperature for 15 min. Afterward, measure luminescence using the microplate reader. “Blank” value is subtracted from all readings. […]

HER2 = HER2 (Homo sapiens, UniProt P04626); test: biochemical; conditions: read-out: IC50 HER2 Inhibition
Chain of HER2 (P04626 23-1255): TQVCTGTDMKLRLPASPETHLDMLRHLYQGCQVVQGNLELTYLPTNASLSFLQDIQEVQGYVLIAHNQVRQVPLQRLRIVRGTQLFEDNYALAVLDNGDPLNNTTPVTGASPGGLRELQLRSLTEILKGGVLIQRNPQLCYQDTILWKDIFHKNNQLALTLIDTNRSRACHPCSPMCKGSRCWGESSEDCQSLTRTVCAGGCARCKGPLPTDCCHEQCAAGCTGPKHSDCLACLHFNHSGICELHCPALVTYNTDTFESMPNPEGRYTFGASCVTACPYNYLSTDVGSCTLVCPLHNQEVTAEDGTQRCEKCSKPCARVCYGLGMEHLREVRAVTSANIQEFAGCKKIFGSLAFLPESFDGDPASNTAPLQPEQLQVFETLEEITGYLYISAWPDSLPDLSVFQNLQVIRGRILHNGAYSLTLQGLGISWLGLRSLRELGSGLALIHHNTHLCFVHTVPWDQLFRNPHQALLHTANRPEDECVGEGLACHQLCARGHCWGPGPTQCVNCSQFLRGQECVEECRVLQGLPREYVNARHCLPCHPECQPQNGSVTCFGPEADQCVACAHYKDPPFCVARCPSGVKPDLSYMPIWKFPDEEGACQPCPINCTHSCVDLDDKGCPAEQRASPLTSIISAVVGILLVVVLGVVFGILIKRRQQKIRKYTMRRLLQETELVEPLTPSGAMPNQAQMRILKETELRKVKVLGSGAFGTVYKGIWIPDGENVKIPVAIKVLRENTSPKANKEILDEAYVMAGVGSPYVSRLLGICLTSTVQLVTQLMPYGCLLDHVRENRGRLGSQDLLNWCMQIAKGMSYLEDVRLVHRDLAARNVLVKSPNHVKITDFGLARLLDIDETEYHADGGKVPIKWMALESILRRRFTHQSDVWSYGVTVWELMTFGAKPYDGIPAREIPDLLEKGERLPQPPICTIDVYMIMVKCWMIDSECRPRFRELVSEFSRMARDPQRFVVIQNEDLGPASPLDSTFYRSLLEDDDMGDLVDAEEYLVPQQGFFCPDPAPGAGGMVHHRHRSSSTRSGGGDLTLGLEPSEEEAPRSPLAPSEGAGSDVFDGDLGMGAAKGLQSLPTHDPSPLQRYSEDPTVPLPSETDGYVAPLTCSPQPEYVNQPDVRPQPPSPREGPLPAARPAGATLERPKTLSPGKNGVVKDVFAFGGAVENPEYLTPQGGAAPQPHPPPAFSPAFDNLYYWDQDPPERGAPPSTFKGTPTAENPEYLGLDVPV
Excerpt: as §1, §2, §3

U251 = test: NCI antitumor screen (SRB); assay type: cell-based; conditions: Homo sapiens
HS 578 T = test: NCI antitumor screen (SRB); assay type: cell-based; conditions: Homo sapiens
K-562 = test: NCI antitumor screen (SRB); assay type: cell-based; conditions: Homo sapiens, K562, K-562
TK-10 = test: NCI antitumor screen (SRB); assay type: cell-based; conditions: Homo sapiens, one dose 10 µM, read-out: Growth inhibition percentage (GI%)
OVCAR-8 = test: NCI antitumor screen (SRB); assay type: cell-based; conditions: Homo sapiens
UACC-62 = test: NCI antitumor screen (SRB); assay type: cell-based; conditions: Homo sapiens
HT29 [8] = test: NCI antitumor screen (SRB); assay type: cell-based; conditions: Homo sapiens
[9] = system: full panel of 59 cancer cell lines; test: NCI antitumor screen, full panel
HCT-116 = system: HCT-116; design: method as in https://dtp.cancer.gov/dtpstandard/dwindex/index.jsp; conditions: reference drugs, ref https://dtp.cancer.gov/dtpstandard/dwindex/index.jsp; cited from earlier work
[10] = five concentrations 0.01-100 µM
[11] = one dose 10 µM, read-out: Growth inhibition percentage (GI%)

Structure (SMILES): Cc1ccc(-c2cc(C(F)(F)F)nn2-c2ccc(S(N)(=O)=O)cc2)cc1 [Celecoxib, celecoxib]
- GI50 [1]: 17.1 µM
- CC50 [1]: 65.9 µM
- TGI (subpanel average) [1]: 34.20 µM
- GI50 (HT29 [2]): 15.8 µM
- GI50 (NCI-H23): 15.8 µM
- GI50 (SW-620): 15.8 µM
- GI50 (SK-OV-3): 19.9 µM
- GI50 (OVCAR-4): 12.6 µM
- GI50 (PRMI-8226): 3.98 µM
- GI50 (EKVX): 19.9 µM
- GI50 (NCI-H322M): 19.9 µM
- GI50 [3]: 25.1 µM
- CC50 [3]: 67.1 µM
- TGI (subpanel average) [3]: 41.93 µM
- GI50 (HCT-15 [4]): 15.8 µM
- GI50 (SK-MEL-2 [5]): 15.8 µM
- GI50 (HCC-2998): 15.8 µM
- GI50 (UO-31): 15.8 µM

Structure (SMILES): CCN(CC)c1ccc(/C=N/NC(=O)c2ccc(S(C)(=O)=O)cc2)c(O)c1 [Compound 20]
- GI50 (COLO 205; [10]): 0.269 µM
- inhibition at 10 µM (COLO 205; [11]): 91.4%
- inhibition at 10 µM (UACC-257; Homo sapiens, UACC-257, UACC-257, one dose 10 µM, read-out: Growth inhibition percentage (GI%)): 100%
- GI50 (UACC-257; Homo sapiens, UACC-257, five concentrations 0.01-100 µM): 0.34 µM
- Growth inhibition percentage (GI%) (UACC-257; UACC-257, one dose 10 µM): >100%
- GI50 (MDA-MB-468; [10]): 0.203 µM
- inhibition at 10 µM (MDA-MB-468; [11]): 98.8%
- GI50 (SNB-19; [10]): 0.428 µM
- inhibition at 10 µM (SNB-19; [11]): 68%
- GI50 (SN12C; [10]): 0.354 µM
- inhibition at 10 µM (SN12C; [11]): 68.8%
- GI50 (SK-MEL-2 [6]; [10]): 0.307 µM
- inhibition at 10 µM (SK-MEL-2 [6]; [11]): 80.5%
- GI50 (M14; [10]): 0.171 µM
- inhibition at 10 µM (M14; [11]): 96.6%
- GI50 (MDA-MB-231/ATCC; [10]): 0.308 µM
- inhibition at 10 µM (MDA-MB-231/ATCC; [11]): 56.8%
- GI50 (HCT-15 [7]; [10]): 0.092 µM
- inhibition at 10 µM (HCT-15 [7]; [11]): 71.5%
- IC50 (EGFR): 0.19 ± 0.01 µM
- IC50 (HER2): 0.07 ± 0.02 µM
- GI50 (U251; U-251, five concentrations 0.01-100 µM): 0.137 µM
- inhibition at 10 µM (U251; U-251, one dose 10 µM, read-out: Growth inhibition percentage (GI%)): 79.4%
- GI50 (HS 578 T; [10]): 11.7 µM
- inhibition at 10 µM (HS 578 T; [11]): 32%
- GI50 (K-562; [10]): 0.604 µM
- inhibition at 10 µM (K-562; [11]): 87.6%
- inhibition at 10 µM (TK-10): 69.5%
- GI50 (OVCAR-8; [10]): 0.25 µM
- inhibition at 10 µM (OVCAR-8; [11]): 83.2%
- GI50 (UACC-62; [10]): 0.234 µM
- inhibition at 10 µM (UACC-62; [11]): > 100%
- GI50 (HT29 [8]; HT-29, five concentrations 0.01-100 µM): 0.297 µM
- inhibition at 10 µM (HT29 [8]; HT-29, one dose 10 µM, read-out: Growth inhibition percentage (GI%)): 78.2%
- GI50 ([9]; Homo sapiens, read-out: GI50 (range over cell lines)): 0.063 to 11.7 µM
- GI50 ([9]; Homo sapiens, read-out: GI50 MG-MID (full panel mean-graph midpoint)): 0.26 µM
- CC50 ([9]; Homo sapiens, read-out: LC50 MG-MID (full panel mean-graph midpoint)): > 100 µM
- TGI MG-MID (full panel mean-graph midpoint) ([9]; full panel): 46.8 µM
- PCE: positive cytotoxic effect (number of cell lines with GI 10 to 100% / total number of cell lines) ([9]; one dose 10 µM): 59/59
- fold more potent than 5-Fu ([9]; ratio of GI50 MG_MID): ~3 fold
- fold more potent than celecoxib ([9]; ratio of GI50 MG_MID): ~65 fold
- fold more potent than erlotinib ([9]; ratio of GI50 MG_MID): ~30 fold
- fold more potent than gefitinib and sorafenib ([9]; ratio of GI50 MG_MID): ~9 fold

Structure (SMILES): C#Cc1cccc(Nc2ncnc3cc(OCCOC)c(OCCOC)cc23)c1 [Erlotinib, erlotinib]
- GI50 [1]: 5.52 µM
- CC50 [1]: 97.1 µM
- TGI (subpanel average) [1]: 74.41 µM
- GI50 (HCT-116): 6.31 µM
- GI50 (HT29 [2]): 63.1 µM
- GI50 (NCI-H23): 31.6 µM
- GI50 (SW-620): 79.4 µM
- GI50 (SK-OV-3): 0.5 µM
- GI50 (OVCAR-4): 10 µM
- GI50 (PRMI-8226): 25.1 µM
- GI50 (EKVX): 0.199 µM
- GI50 (NCI-H322M): 0.1 µM
- GI50 [3]: 13.1 µM
- CC50 [3]: 97.7 µM
- TGI (subpanel average) [3]: 73.76 µM
- GI50 (HCT-15 [4]): 3.98 µM
- GI50 (SK-MEL-2 [5]): 6.31 µM
- GI50 (HCC-2998): 79.4 µM
- GI50 (UO-31): 1 µM

Structure (SMILES): COc1cc2ncnc(Nc3ccc(F)c(Cl)c3)c2cc1OCCCN1CCOCC1 [Gefitinib, gefitinib]
- GI50 [1]: 3.05 µM
- TGI (subpanel average) [1]: 33.29 µM
- GI50 (HCT-116): 3.16 µM
- GI50 (HT29 [2]): 3.98 µM
- GI50 (NCI-H23): 2.51 µM
- GI50 (SK-OV-3): 1 µM
- GI50 (NCI-H322M): 0.063 µM
- GI50 [3]: 2.05 µM
- TGI (subpanel average) [3]: 13.86 µM
- GI50 (HCT-15 [4]): 3.98 µM
- GI50 (SK-MEL-2 [5]): 10 µM
- GI50 (HCC-2998): 2.51 µM
- GI50 (UO-31): 1.58 µM

Structure (SMILES): CS(=O)(=O)c1ccc(C(=O)Nc2ccc(Cl)c(-c3ccccn3)c2)c(Cl)c1 [Vismodegib, vismodegib]
- GI50 (HCT-116): 50.1 µM
- GI50 (HT29 [2]): 25.1 µM
- GI50 (NCI-H23): 50.1 µM
- GI50 (SW-620): 63.1 µM
- GI50 (OVCAR-4): 39.8 µM
- GI50 (PRMI-8226): 31.6 µM
- GI50 (EKVX): 39.8 µM
- GI50 (NCI-H322M): 100 µM
- GI50 (HCT-15 [4]): 31.6 µM
- GI50 (SK-MEL-2 [5]): 39.8 µM
- GI50 (HCC-2998): 39.8 µM
- GI50 (UO-31): 31.6 µM
